Test results published in ChEMBL document CHEMBL5154846, “Adjusted degradation of BRD4 S and BRD4 L based on fine structural modifications of the pyrrolopyridone scaffold” (Eur J Med Chem, 2022).
Activity calls are given as the source filed them. No cut-off for these calls is given here.

Tests used:
[1] = target: T1, Bromodomain-containing protein 4 (Homo sapiens, UniProt O60885); test: Inhibition of BRD4-BD2 (unknown origin) preincubated for 30 mins followed by substrate addition and measured after 3 hr by HTRF
[2] = target: T1, Bromodomain-containing protein 4; test: Protac activity at BRD4 short isoform in human MV4-11 cells at 100 nM for 24 hrs by immunoblot analysis; format: cell-based
[3] = target: Bromodomain-containing protein 3 (Homo sapiens) (UniProt Q15059); test: Protac activity at BRD3 in human MV4-11 cells at 100 nM measured after 24 hrs by immunoblot analysis; format: cell-based
[4] = target: Bromodomain-containing protein 2 (Homo sapiens) (UniProt P25440); test: Protac activity at BRD2 in human MV4-11 cells at 100 nM measured after 4 hrs by immunoblot analysis; format: cell-based
[5] = target: Bromodomain-containing protein 2 (Homo sapiens) (UniProt P25440); test: Protac activity at BRD2 in human MV4-11 cells at 100 nM measured after 24 hrs by immunoblot analysis; format: cell-based
[6] = target: Bromodomain-containing protein 3 (Homo sapiens) (UniProt Q15059); test: Protac activity at BRD3 in human MV4-11 cells at 100 nM measured after 4 hrs by immunoblot analysis; format: cell-based
[7] = target: T1, Bromodomain-containing protein 4; test: Inhibition of BRD4-BD1 (unknown origin) preincubated for 30 mins followed by substrate addition and measured after 3 hr by HTRF assay
[8] = target: T1, Bromodomain-containing protein 4; test: Protac activity at BRD4 short isoform in human MV4-11 cells at 100 nM for 12 hrs by immunoblot analysis; format: cell-based
MV4-11 [9] = test: Antiproliferative activity against human MV4-11 cells incubated for 72 hrs by CCK8 assay; format: functional, cell-based; details: MV4-11, 72 h
MV4-11 [10] = test: Cell cycle arrest in human MV4-11 cells assessed as accumulation at G2/M phase at 0.1 uM for 24 hrs by PI/RNase staining based flow cytometry analysis; format: functional
MV4-11 [11] = test: Anti-proliferative activity in human MV4-11 cells assessed as downregulation of c-myc levels at 100 nM incubated for 24 hrs by western blot analysis; format: functional, cell-based
MV4-11 [12] = test: Anti-proliferative activity in human MV4-11 cells assessed as downregulation of c-myc levels at 10 to 1000 nM incubated for 4 hrs by western blot analysis; format: functional, cell-based; details: dose 10-1000 nM

Sequence of Bromodomain-containing protein 3 (Homo sapiens) (Q15059 2-726 limits assumed): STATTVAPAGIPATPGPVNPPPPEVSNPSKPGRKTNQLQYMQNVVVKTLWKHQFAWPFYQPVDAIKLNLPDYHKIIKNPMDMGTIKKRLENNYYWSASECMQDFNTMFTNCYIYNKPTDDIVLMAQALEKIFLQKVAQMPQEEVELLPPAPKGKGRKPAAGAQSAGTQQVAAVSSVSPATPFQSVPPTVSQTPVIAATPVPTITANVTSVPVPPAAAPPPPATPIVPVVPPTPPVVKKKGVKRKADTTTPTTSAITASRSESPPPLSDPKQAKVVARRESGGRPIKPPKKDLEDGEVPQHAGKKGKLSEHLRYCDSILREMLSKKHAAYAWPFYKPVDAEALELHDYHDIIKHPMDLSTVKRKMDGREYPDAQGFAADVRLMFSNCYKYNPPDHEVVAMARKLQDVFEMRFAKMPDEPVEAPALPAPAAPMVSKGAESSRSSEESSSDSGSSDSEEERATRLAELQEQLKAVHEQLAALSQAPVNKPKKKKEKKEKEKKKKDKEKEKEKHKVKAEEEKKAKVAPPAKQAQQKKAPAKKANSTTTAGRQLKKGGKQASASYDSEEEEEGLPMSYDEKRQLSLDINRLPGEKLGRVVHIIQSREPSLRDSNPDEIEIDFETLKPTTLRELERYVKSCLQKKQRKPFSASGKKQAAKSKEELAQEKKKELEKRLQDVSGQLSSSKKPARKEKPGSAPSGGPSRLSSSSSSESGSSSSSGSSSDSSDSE
Sequence of Bromodomain-containing protein 2 (Homo sapiens) (P25440 whole entry, looked up): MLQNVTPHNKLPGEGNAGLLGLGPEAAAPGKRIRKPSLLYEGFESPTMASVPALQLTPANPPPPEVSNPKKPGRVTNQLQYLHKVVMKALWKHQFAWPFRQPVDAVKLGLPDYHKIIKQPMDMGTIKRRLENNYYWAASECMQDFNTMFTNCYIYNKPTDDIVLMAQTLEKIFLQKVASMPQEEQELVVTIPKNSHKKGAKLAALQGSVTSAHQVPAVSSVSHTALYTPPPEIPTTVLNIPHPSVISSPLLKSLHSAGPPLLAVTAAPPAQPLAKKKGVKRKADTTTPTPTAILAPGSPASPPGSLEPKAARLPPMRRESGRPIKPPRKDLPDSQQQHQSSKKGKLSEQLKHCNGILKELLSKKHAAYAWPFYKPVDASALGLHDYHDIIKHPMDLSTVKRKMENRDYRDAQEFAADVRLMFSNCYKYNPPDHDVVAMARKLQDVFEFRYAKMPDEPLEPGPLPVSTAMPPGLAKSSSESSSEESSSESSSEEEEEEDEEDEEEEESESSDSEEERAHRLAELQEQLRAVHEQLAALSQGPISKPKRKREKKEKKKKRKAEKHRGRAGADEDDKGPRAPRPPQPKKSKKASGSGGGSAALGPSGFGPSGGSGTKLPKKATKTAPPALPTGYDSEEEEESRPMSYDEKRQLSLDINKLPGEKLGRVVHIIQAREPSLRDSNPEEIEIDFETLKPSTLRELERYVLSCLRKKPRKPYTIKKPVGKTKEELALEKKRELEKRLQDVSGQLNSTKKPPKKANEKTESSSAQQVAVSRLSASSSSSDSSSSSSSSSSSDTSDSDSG

In the case of `Cn1cc(-c2ccccc2Oc2ccccc2)c2cc(C(=O)NCCCCC(=O)NCCCCNc3cccc4c3C(=O)N(C3CCC(=O)NC3=O)C4=O)[nH]c2c1=O` (stereo unspecified), the IC50 [1] is reported as 24.3 nM, the Activity [2] is reported as “Active” and the Activity [3] is reported as “Active”. For the same compound, the Activity [4] was “Active”, the Activity [5] was “Active” and the Activity [6] was “Active”. For the same compound, the IC50 [7] was 185 nM.

In the case of `Cn1cc(-c2cccc(C(C)(C)O)c2)c2cc(C(=O)NCc3ccc(C(=O)NCCCCNc4cccc5c4C(=O)N(C4CCC(=O)NC4=O)C5=O)cc3)[nH]c2c1=O` (stereo unspecified), the IC50 [1] is reported as 73 nM and the IC50 [7] is reported as 45.4 nM.

In the case of `C=C(C)c1ccc(OC(C)C)c(-c2cn(C)c(=O)c3[nH]c(C(=O)NCc4ccc(C(=O)NCCCCNc5cccc6c5C(=O)N(C5CCC(=O)NC5=O)C6=O)cc4)cc23)c1` (stereo unspecified), the IC50 [1] is reported as 101 nM, the Activity [2] is reported as “Active” and the IC50 [7] is reported as 119 nM.

In the case of `Cn1cc(-c2cc(C(C)(C)O)ccc2Oc2ccccc2)c2cc(C(=O)NCc3ccc(C(=O)NCCCCNc4cccc5c4C(=O)N(C4CCC(=O)NC4=O)C5=O)cc3)[nH]c2c1=O` (stereo unspecified), the IC50 [1] is reported as 3.82 nM and the IC50 [7] is reported as 29.5 nM.

`CC(C)Oc1ccc(C(C)(C)O)cc1-c1cn(C)c(=O)c2[nH]c(C(=O)NCc3ccc(C(=O)NCCCCNc4cccc5c4C(=O)N(C4CCC(=O)NC4=O)C5=O)cc3)cc12` (stereo unspecified) was tested, and the IC50 [1] was 13.9 nM and the IC50 [7] was 24.6 nM.

For `CC(C)Oc1ccccc1-c1cn(C)c(=O)c2[nH]c(C(=O)NCc3ccc(C(=O)NCCCCNc4cccc5c4C(=O)N(C4CCC(=O)NC4=O)C5=O)cc3)cc12` (stereo unspecified), the IC50 [1] was 91.5 nM, the Activity [2] was “Active” and the IC50 [7] was 83.7 nM.

In the case of `Cn1cc(-c2ccccc2)c2cc(C(=O)NCc3ccc(C(=O)NCCCCNc4cccc5c4C(=O)N(C4CCC(=O)NC4=O)C5=O)cc3)[nH]c2c1=O` (stereo unspecified), the IC50 [1] is reported as 296 nM and the IC50 [7] is reported as 99.8 nM.

In the case of `Cn1cc(-c2ccccc2Oc2ccccc2)c2cc(C(=O)NCCCCCCNc3cccc4c3C(=O)N(C3CCC(=O)NC3=O)C4=O)[nH]c2c1=O` (stereo unspecified), the IC50 [1] is reported as 39.4 nM, the Activity [2] is reported as “Active” and the Activity [3] is reported as “Active”. For the same compound, the Activity [4] was “Active”, the Activity [5] was “Active” and the Activity [6] was “Active”. For the same compound, the IC50 [7] was 441 nM.

For `C=C(C)c1ccc(Oc2ccccc2)c(-c2cn(C)c(=O)c3[nH]c(C(=O)NCc4ccc(C(=O)NCCCCNc5cccc6c5C(=O)N(C5CCC(=O)NC5=O)C6=O)cc4)cc23)c1` (stereo unspecified), the IC50 [1] was 74.1 nM, the Activity [2] was “Active” and the IC50 [7] was 241 nM.

With `Cn1cc(-c2ccccc2OC2CC2)c2cc(C(=O)NCc3ccc(C(=O)NCCCCNc4cccc5c4C(=O)N(C4CCC(=O)NC4=O)C5=O)cc3)[nH]c2c1=O` (stereo unspecified) the IC50 [1] was 96.4 nM, the Activity [2] was “Active” and the Activity [8] was “Active”. It also gave an IC50 [7] of 54.3 nM.

In the case of `Cn1cc(-c2ccccc2Oc2ccccc2)c2cc(C(=O)NCCCCCC(=O)NCCCCNc3cccc4c3C(=O)N(C3CCC(=O)NC3=O)C4=O)[nH]c2c1=O` (stereo unspecified), the IC50 [1] is reported as 38.8 nM, the Activity [2] is reported as “Active” and the Activity [3] is reported as “Active”. The Activity [4] was “Active”, the Activity [5] was “Active” and the Activity [6] was “Active”. For the same compound, the IC50 [7] was 278 nM.

Work on `CCNC(=O)c1cc2c(-c3cc(C(C)(C)O)ccc3Oc3c(C)cc(F)cc3C)cn(C)c(=O)c2[nH]1` [ABBV-744] yielded an IC50 (MV4-11 [9]) of 153 nM.

For `Cc1sc2c(c1C)C(c1ccc(Cl)cc1)=N[C@@H](CC(=O)NCCCCCCCCNC(=O)COc1cccc3c1C(=O)N(C1CCC(=O)NC1=O)C3=O)c1nnc(C)n1-2` (stereo partly specified), the Activity (MV4-11 [10]) was “Active”, the Activity [3] was “Active” and the Activity [4] was “Active”. For the same compound, the Activity (MV4-11 [11]) was “Active”, the Activity (MV4-11 [12]) was “Active” and the Activity [5] was “Active”. The Activity [6] was “Active” and the IC50 (MV4-11 [9]) was 10.3 nM.

In the case of `Cn1cc(-c2ccccc2Oc2ccccc2)c2cc(C(=O)NCc3ccc(C(=O)NCCCCNc4cccc5c4C(=O)N(C4CCC(=O)NC4=O)C5=O)cc3)[nH]c2c1=O` (stereo unspecified), the IC50 [1] is reported as 27.2 nM, the Activity [2] is reported as “Active” and the Activity [8] is reported as “Active”. For the same compound, the Activity [3] was “Active”, the Activity [4] was “Active” and the Activity [5] was “Active”. For the same compound, the Activity [6] was “Active” and the IC50 [7] was 34.6 nM.

With `Cn1cc(-c2ccccc2Oc2ccccc2)c2cc(C(=O)NCCCCNc3cccc4c3C(=O)N(C3CCC(=O)NC3=O)C4=O)[nH]c2c1=O` (stereo unspecified) the IC50 [1] was 84.9 nM, the Activity [2] was “Active” and the Activity [3] was “Active”. The Activity [4] was “Active”, the Activity [5] was “Active” and the Activity [6] was “Active”. The IC50 [7] was 472 nM.

For `Cn1cc(-c2cc(C(C)(C)O)ccc2OC2CC2)c2cc(C(=O)NCc3ccc(C(=O)NCCCCNc4cccc5c4C(=O)N(C4CCC(=O)NC4=O)C5=O)cc3)[nH]c2c1=O` (stereo unspecified), the IC50 [1] was 7.79 nM and the IC50 [7] was 22.7 nM.

`Cn1cc(-c2ccccc2Oc2ccccc2)c2cc(C(=O)NCCCCCCC(=O)NCCCCNc3cccc4c3C(=O)N(C3CCC(=O)NC3=O)C4=O)[nH]c2c1=O` (stereo unspecified) was tested, and the IC50 [1] was 35.7 nM, the Activity [2] was “Active” and the Activity [3] was “Active”. The Activity [4] was “Active”, the Activity [5] was “Active” and the Activity [6] was “Active”. The IC50 [7] was 332 nM.

For `COc1cc(C(=O)NCCOCCOCCOCCNC(=O)C[C@@H]2N=C(c3ccc(Cl)cc3)c3c(sc(C)c3C)-n3c(C)nnc32)ccc1NC(=O)[C@@H]1N[C@@H](CC(C)(C)C)[C@](C#N)(c2ccc(Cl)cc2F)[C@H]1c1cccc(Cl)c1F`, the Activity [2] was “Active”.
